One assay has as its target T1, CK2α2β2 (Homo sapiens, UniProt P68400).
T1 construct: purchased Millipore (Upstate Kinase Profiler Panel Service)
Put plainly: Kinase selectivity profiling (Millipore Kinase profiler). It counts as biochemical. The settings on record: 100 μM compound; 10 μM ATP. The method, then: (§1) Kinase selectivity of compound 1 was assessed using a panel of 45 recombinant protein kinases. The assays were performed at 10 μM ATP in the presence of 100 μM inhibitor using the Kinase profiler panel service (Millipore). Inhibition, expressed as the percent of activity determined in the absence of inhibitor, was calculated from the residual activity measured in the presence of 100 μM inhibitor.
(§2) Fig. S4. Kinase selectivity profile of compound 1 on a panel of 45 different protein kinases. The assays were performed at 10 μM ATP in the presence of 100 μM compound 1 using the Upstate Kinase Profiler Panel Service (Millipore). Residual activity in presence of 100 μM compound 1 are depicted in (a) and a graphical representation of the inhibition percentage in the presence of 100 μM compound 1 is shown in (b).

The target in a further assay is T2, Pim-1 (Homo sapiens, UniProt P11309).
T2 construct: purchased Millipore (Upstate Kinase Profiler Panel Service)
The assay is described as above. It counts as biochemical. As to conditions: 100 μM compound; 10 μM ATP. Here is the method: as §1, §2

A further assay has as its target T3, CHK2 (Homo sapiens, UniProt O96017).
T3 construct: purchased Millipore (Upstate Kinase Profiler Panel Service)
Described as above. It counts as biochemical. The settings on record: 100 μM compound; 10 μM ATP. Here is the method: as §1, §2

The next assay addresses CK2α (Homo sapiens, UniProt P68400). The description is as above. It counts as biochemical. The settings on record: 100 μM compound; 10 μM ATP. Here is the method:
as §1, §2

Assay [1] has as its system panel of 45 recombinant protein kinases. Put plainly: Kinase selectivity profiling, whole panel. It counts as biochemical, human. The settings on record: focused selectivity panel of 45 kinases, 100 μM. The method, then:
as §1, §2

Assay [2] relates to survivin expression in MCF10A cells. Put plainly: Western blot of survivin expression. It counts as cell-based, human. As to conditions: 24 h, 25 μM 6 or 30 μM TAT-Pc. The method, then: (§3) Figure 5 Cellular effects of compounds 3, 4 and 6. MCF10A cells were incubated for 24 h with either DMSO or 30 μM TAT or 30 μM TAT-Pc or 25 μM 6 (a) or with increasing concentrations of 6 (b) or 3 (c). MCF10A cells were incubated for 48 h with either DMSO or with increasing concentrations of 3 or 6 (d). Cells were then lysed and analyzed by western blot with the indicated antibodies. Blot images are representative of at least three independent experiments. Uncropped blots are shown in Supplementary Fig. S16. (e) MDA-MB231 cells were treated with 40 μM 6 (⚬), 4 (▴) or 3 (X). (f) MDA-MB231 cells were treated for 30 h with increasing concentrations of 6 (⚬) or 4 (▴). Insert: cells were treated for 30 h with 80 μM 6 or 10 μM CX-4945. […] Cell death was automatically quantified from images captured every 3 h for the duration of the experiments using an Essen IncuCyte Zoom live-cell microscopy incubator. […]
(§4) Cells were lysed in RIPA buffer (10 mM Tris-HCl pH 7.4, 150 mM NaCl, 1% Triton X-100, 0.1% SDS, 0.5% DOC and 1 mM EDTA) containing both protease- and phosphatase-inhibitor cocktails (Sigma-Aldrich; P8340, P2850, P5726). Cell homogenates were quantified using BCA protein Assay kit (Thermo Scientific). […] Luminata Forte Western HRP substrate (Millipore) was added and membranes were read with Fusion Fx7 (PerkinElmer). […] Images were analyzed and band intensities were quantified using ImageJ software. […]
(In general: A western blot detects proteins with antibodies after separation by electrophoresis.)

The subject of assay [3] is CK2β-depleted MCF10A cells (ΔCK2β). Put plainly: Cell growth inhibition in CK2β-depleted cells (IncuCyte). It counts as cell-based, human. As to conditions: 50 μM; ΔCK2β vs WT MCF10A. The method, then:
Cells grown on 96-well flat-bottomed plates (Corning Falcon) were tracked using an Essen IncuCyte Zoom live-cell microscopy instrument, an automated live cell imager with high-throughput capabilities and built-in data analysis. Experiments were conducted at 37 °C and 5% CO2. The software incorporated into the IncuCyte Zoom was used to analyze the images.
MCF10A and MDA-MB231 cells were seeded into 96-well plates at a density (1 × 10^4 and 2 × 10^4 cells/well, respectively) and allowed to attach overnight. Bright field images were captured every 3 h for the duration of the experiment. The detection software was calibrated specifically for MCF10A and MDA-MB231 to ensure accurate distinction of cells from empty space. Cell proliferation data were obtained by the cell confluence increment in each of the treatments and expressed as percentage relative to that of control cells.
Fig. S9. […] (a) MCF10A cells were incubated with increasing concentrations of 6 for 24 h. (b) Inset: western blot analysis of CK2 subunits in parental MCF10A cells (WT) or CK2β knockdown MCF10A cells (∆CK2β). Uncropped blots are shown in Supplementary Fig. S16. MCF10A WT (r,p) or MCF10A ∆CK2β (○,●) were incubated with DMSO (r,○) or 50 μM 6 (p,●) for the indicated time. Cell growth was monitored using an Essen IncuCyte Zoom live-cell microscopy incubator. Images were captured every 15 min for the duration of the experiment. […]

For assay [4], the system named is PARP cleavage in MCF10A cells. Put plainly: Western blot of PARP cleavage. It counts as cell-based, human. The settings on record: 24 h, 25 μM 6 or 30 μM TAT-Pc. Here is the method: as §3, §4

As usually defined, the inhibition is how much of the control response was suppressed. Read a high inhibition as strong suppression.

T1 sequence (P68400 whole entry): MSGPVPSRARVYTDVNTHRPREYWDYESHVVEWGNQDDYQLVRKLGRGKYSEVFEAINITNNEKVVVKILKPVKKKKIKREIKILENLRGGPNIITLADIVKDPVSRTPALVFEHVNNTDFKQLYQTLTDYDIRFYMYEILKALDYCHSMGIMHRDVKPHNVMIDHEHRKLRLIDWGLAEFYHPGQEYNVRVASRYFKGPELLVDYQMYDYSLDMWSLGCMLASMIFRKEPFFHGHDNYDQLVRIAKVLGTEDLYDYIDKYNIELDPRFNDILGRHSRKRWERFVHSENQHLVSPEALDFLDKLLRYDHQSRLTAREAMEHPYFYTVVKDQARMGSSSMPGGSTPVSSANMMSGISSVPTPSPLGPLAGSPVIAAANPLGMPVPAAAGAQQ
Chain of CK2α (P68400 whole entry): as above
T3 sequence (O96017 whole entry): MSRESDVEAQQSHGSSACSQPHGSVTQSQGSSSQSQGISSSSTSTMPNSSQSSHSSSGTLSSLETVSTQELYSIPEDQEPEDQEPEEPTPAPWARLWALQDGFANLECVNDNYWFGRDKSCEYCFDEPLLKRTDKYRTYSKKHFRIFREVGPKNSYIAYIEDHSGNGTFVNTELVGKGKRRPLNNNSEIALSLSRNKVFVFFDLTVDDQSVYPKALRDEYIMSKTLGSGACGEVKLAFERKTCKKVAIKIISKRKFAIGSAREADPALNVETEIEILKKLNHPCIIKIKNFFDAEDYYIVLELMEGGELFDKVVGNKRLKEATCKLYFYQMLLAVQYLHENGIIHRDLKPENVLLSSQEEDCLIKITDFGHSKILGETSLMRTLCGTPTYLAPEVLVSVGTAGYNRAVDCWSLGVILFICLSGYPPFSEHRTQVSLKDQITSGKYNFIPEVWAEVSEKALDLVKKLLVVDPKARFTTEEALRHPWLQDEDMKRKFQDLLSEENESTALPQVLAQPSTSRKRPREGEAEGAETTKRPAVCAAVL
T2 sequence (P11309 whole entry): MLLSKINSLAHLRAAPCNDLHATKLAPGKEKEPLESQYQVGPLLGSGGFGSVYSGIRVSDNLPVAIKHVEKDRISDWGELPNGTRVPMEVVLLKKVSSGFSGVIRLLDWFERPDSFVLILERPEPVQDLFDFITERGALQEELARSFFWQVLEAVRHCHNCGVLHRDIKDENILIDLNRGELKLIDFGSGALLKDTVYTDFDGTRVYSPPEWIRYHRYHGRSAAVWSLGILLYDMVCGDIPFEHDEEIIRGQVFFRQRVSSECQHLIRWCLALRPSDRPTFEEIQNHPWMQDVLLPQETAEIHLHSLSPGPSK

On to `COc1[nH]c2ccc(F)cc2c1C(=O)OCC1CCN(CCNS(C)(=O)=O)CC1` [Compound 1], for which the inhibition at 100 µM against CK2α2β2 was 85%; on Pim-1 it was 36%; on CHK2, 24%; against CK2α, 27%. Moreover, in assay [1], the Gini coefficient is listed as 0.81.

In the case of `COc1[nH]c2ccc(F)cc2c1C(=O)OCC1CCN(CCNS(=O)(=O)c2ccccc2)CC1.Cl` [Compound 6], the survivin expression entry in assay [2] was “decreased”. Further, the “growth inhibition in CK2β-depleted cells compared with WT cells” value in assay [3] is on record as “twice more pronounced”. Besides, the PARP cleavage entry in assay [4] is on record as “No significant PARP cleavage”.

For the origin of these results see article PMC6828666, “Discovery of holoenzyme-disrupting chemicals as substrate-selective CK2 inhibitors” (Scientific Reports, 2019).
